In article PMC11413853, “Discovery of VU6007496: Challenges in the Development of an M1 Positive Allosteric Modulator Backup Candidate” (ACS Chemical Neuroscience, 2024):

Legend:
[1] = test system: Leukotriene, Cysteinyl CysLT1; test: Eurofins radioligand binding; set-up: species or system Human; conditions: specific binding
Sodium Channel, Site 2 = test: Eurofins radioligand binding; set-up: species or system Rat; conditions: specific binding
hNav1.5 (Phasic) = test system: T1, hNav1.5 (Phasic); test: Ion channel current (Charles River Study 200609.WVN); assay type: cell-based, human; conditions: 10 μM, n 4
T1 construct: Charles River Study 200609.WVN
From the text: (§1) Table S2. Effects of VU6007496 on Ion Channel Current (Charles River Study 200609.WVN)
(§2) Ion Channel Conc Mean % Standard Standard n Individual Data
(§3) (μM) Inhibition Deviation Error Points (% Inhibition)

hKv1.3 = test system: T2, hKv1.3; test: as above; assay type: cell-based, human; conditions: 10 μM; n 4
T2 construct: Charles River
From the text: as §1, §2, §3

hNav1.5 (Tonic) = test system: T3, hNav1.5 (Tonic); test: as above; assay type: cell-based, human; conditions: 10 μM, n 4
T3 construct: Charles River Study 200609.WVN
From the text: as §1, §2, §3

hKvLQT1/minK = test system: T4, hKvLQT1/minK; test: as above; assay type: cell-based, human; conditions: 10 μM; n 4
T4 construct: Charles River
From the text: as §1, §2, §3

hCav3.2 = test system: T5, hCav3.2; test: as above; assay type: cell-based, human; conditions: 10 μM; n 4
T5 construct: Charles River
From the text: as §1, §2, §3

hKv1.5 = test system: T6, hKv1.5; test: as above; assay type: cell-based, human; conditions: 10 μM; n 3
T6 construct: Charles River
From the text: as §1, §2, §3

hHCN2 = test system: T7, hHCN2; test: as above; assay type: cell-based, human; conditions: 10 μM; n 3
T7 construct: Charles River
From the text: as §1, §2, §3

hCav1.2 = test system: T8, hCav1.2; test: as above; assay type: cell-based, human; conditions: 10 μM; n 4
T8 construct: Charles River
From the text: as §1, §2, §3

Hepatocyte MET ID, mouse = assay type: in vitro ADME
From the text: We typically would not examine mouse hepatocyte MET ID, as mouse was not a safety species for the IND-enabling toxicology package, but with the unusual metabolism profile for human, and the lack of predictive cholinergic tox in the mouse phenotypic assay, we felt this was worthy of exploration. […] Clearly, based on the hepatocyte data, there is a tremendous difference in the concentration of parent 11 and metabolite composition, which sheds light on the mouse-rat disconnect for observed cholinergic toxicity in rat versus the more cholinergic sensitive mouse.

Interleukin IL-1 R1 = test: Eurofins radioligand binding; set-up: species or system Human; conditions: specific binding
Adenosine A3 = test: Eurofins radioligand binding; set-up: species or system Human; conditions: specific binding
Potassium Channel hERG = test: Eurofins radioligand binding; conditions: human, specific binding
Hepatocyte MET ID, dog = assay type: in vitro ADME; conditions: 4-h incubation
From the text: (§4) More concerning were the results generated via outsourced multispecies hepatocyte MET ID, which were drastically different than the liver S9MET ID. The extent of metabolism for VU6007496 with rat, dog, monkey and human hepatocytes was 64.7, 51.5, 63.9 and 99.5%, respectively (Figure 8). […] In human hepatocytes, PAM 11 was metabolized primarily to Metabolite A (24), the result of oxidative N-demethylation of the southern pyrazole. The other minor metabolites were oxidation on the tetrahydropyran moiety and included ring opening (Metabolite F, 25).[21]

Muscarinic M1 = test: Eurofins radioligand binding; set-up: species or system Human; conditions: specific binding
Neuropeptide Y Y2 = test: Eurofins radioligand binding; set-up: species or system Human; conditions: specific binding
Neuropeptide Y Y1 = test: Eurofins radioligand binding; set-up: species or system Human; conditions: specific binding
Calcium Channel N-Type = test: Eurofins radioligand binding; set-up: species or system Rat; conditions: specific binding
Hepatocyte MET ID, rat = assay type: in vitro ADME; conditions: 4-h incubation
From the text: as §4

CYP1A2 = test: CYP induction (mRNA) in cryopreserved human hepatocytes, CYP1A2; assay type: in vitro ADME; conditions: three donors
From the text: To advance 11 as a candidate and into IND-enabling studies, we next needed to better understand its CYP profile to minimize drug–drug interactions in the clinic. […] We were pleased to see the contribution of another CYP beyond 3A4 for the metabolism of 11.[21] In parallel, we investigated the ability of PAM 11 to induce the expression of CYP450s (measuring mRNA) in cryopreserved human hepatocytes from three separate donors.

Phorbol Ester = test: Eurofins radioligand binding; set-up: species or system Mouse; conditions: specific binding
Adrenergic α1B = test: Eurofins radioligand binding; set-up: species or system Human; conditions: specific binding
Tachykinin NK1 = test: Eurofins radioligand binding; set-up: species or system Human; conditions: specific binding
Serotonin (5-HT1A) = test: Eurofins radioligand binding; set-up: species or system Human; conditions: specific binding
Sigma σ1 = test: Eurofins radioligand binding; set-up: species or system Human; conditions: specific binding
Adrenergic β2 = test: Eurofins radioligand binding; set-up: species or system Human; conditions: specific binding
Adenosine A1 = test: Eurofins radioligand binding; set-up: species or system Human; conditions: specific binding

SMILES: Cn1ccc(-c2ccc(Cc3cc(C(=O)NC4CCOCC4)nc4ccn(C)c34)cc2)n1 [compound 11]
- % Inhibition at 10 µM [1]: 3%
- % Inhibition at 10 µM (Sodium Channel, Site 2): 19%
- Mean % Inhibition (hNav1.5 (Phasic)): 11.4%
- Mean % Inhibition (hKv1.3): 16.5%
- Mean % Inhibition (hNav1.5 (Tonic)): 3.9%
- Mean % Inhibition (hKvLQT1/minK): 13.5%
- Mean % Inhibition (hCav3.2): 4.2%
- Mean % Inhibition (hKv1.5): 8.7%
- Mean % Inhibition (hHCN2): 4.9%
- Mean % Inhibition (hCav1.2): 12.8%
- extent of metabolism, mouse hepatocytes (Hepatocyte MET ID, mouse): 95.4%
- % Inhibition at 10 µM (Interleukin IL-1 R1): 10%
- % Inhibition at 10 µM (Adenosine A3): 38%
- inhibition at 10 µM (Potassium Channel hERG): 11%
- extent of metabolism, dog hepatocytes (Hepatocyte MET ID, dog): 51.5%
- % Inhibition at 10 µM (Muscarinic M1): -8%
- % Inhibition at 10 µM (Neuropeptide Y Y2): 31%
- % Inhibition at 10 µM (Neuropeptide Y Y1): -10%
- % Inhibition at 10 µM (Calcium Channel N-Type): 8%
- extent of metabolism, rat hepatocytes (Hepatocyte MET ID, rat): 64.7%
- CYP1A2 induction (mRNA) (CYP1A2): ~3 fold
- % Inhibition at 10 µM (Phorbol Ester): -1%
- % Inhibition at 10 µM (Adrenergic α1B): 14%
- % Inhibition at 10 µM (Tachykinin NK1): 8%
- % Inhibition at 10 µM (Serotonin (5-HT1A)): 7%
- % Inhibition at 10 µM (Sigma σ1): -8%
- % Inhibition at 10 µM (Adrenergic β2): 7%
- % Inhibition at 10 µM (Adenosine A1): 10%
